# Assay results: patent US5587392A, “Azolyl methyl phenyl derivatives having aromatase inhibitory activity” (Mochida Pharmaceutical Co., Ltd., priority 1994, dated 1996)
# Like-named read-outs stand apart in the source and are kept apart here.
# Key:
# [1] = related art; cited from earlier work
# [2] = molecular target: T1, aromatase from rat ovary (Rattus norvegicus, UniProt P22443); experiment: Inhibitory activity on aromatase from rat ovary; format: biochemical
# T1 construct: Using as an enzyme sample the ovarian microsome fraction from a female rat; from tissue; host or cells: rat ovary, microsome fraction (female rat)
# T1 sequence (P22443 1-508): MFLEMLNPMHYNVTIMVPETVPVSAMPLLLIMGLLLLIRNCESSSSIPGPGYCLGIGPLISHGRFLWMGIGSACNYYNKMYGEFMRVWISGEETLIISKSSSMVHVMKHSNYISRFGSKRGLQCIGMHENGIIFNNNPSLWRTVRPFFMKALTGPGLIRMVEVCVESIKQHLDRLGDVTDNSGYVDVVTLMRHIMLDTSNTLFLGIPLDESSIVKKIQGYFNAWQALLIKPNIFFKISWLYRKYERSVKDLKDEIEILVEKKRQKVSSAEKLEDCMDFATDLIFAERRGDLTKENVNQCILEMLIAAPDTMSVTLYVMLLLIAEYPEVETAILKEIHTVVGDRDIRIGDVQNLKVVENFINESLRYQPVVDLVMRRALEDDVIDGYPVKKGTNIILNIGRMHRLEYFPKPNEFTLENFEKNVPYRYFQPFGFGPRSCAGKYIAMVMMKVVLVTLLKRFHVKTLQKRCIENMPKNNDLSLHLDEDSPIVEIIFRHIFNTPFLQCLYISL
# [3] = system: plasma estradiol; experiment: Decreasing activity on blood estrogen (plasma estradiol, PMSG-treated rats); format: in vivo, female SD rats; conditions: Rattus norvegicus, po, 4 hours after dosing, read-out: Ratio in plasma estradiol decrease; for inhibition in vivo at 0.1 mg/kg: 0.1 mg/kg orally; for inhibition in vivo at 0.01 mg/kg: 0.01 mg/kg orally
# Description: More specifically, pregnant mare serum gonadotropin (PMSG) was subcutaneously administered to female SD rats aged 3 weeks, at a dose of 200 IU/rat. […] Four hours after the dosing of the test compound, blood was sampled, and plasma estradiol was messuered by radioimmunoassay(RIA). The decreasing ratio (%) in plasma estradiol levels was calculated by comparing with control groups.
# [4] = system: corticosterone; experiment: Effect on plasma levels of corticosterone; format: in vivo, male SD rats; conditions: even at the highest doses (10 mg/kg; CGS 16949A 1 mg/kg)
# [5] = system: testosterone; experiment: Effect on plasma levels of testosterone; format: in vivo, male SD rats; conditions: even at the highest doses (10 mg/kg; CGS 16949A 1 mg/kg)
# [6] = system: progesterone; experiment: Effect on plasma levels of progesterone; format: in vivo, male SD rats; conditions: even at the highest doses (10 mg/kg; CGS 16949A 1 mg/kg)
# [7] = system: steroid hormone level in blood; experiment: Effects on the synthesis of various steroid hormones, compared with the dose lowering blood estrogen; format: in vivo, rats; conditions: 10 mg/kg
# [8] = system: aromatase; conditions: related art; cited from earlier work
# [9] = system: estrogen-dependent diseases; conditions: related art; cited from earlier work
# [10] = rat ovarian microsomes, 30 nM [1β-3H] androstenedione, pH 7.4, 37° C., 15 minutes, read-out: IC50 value
smiles,measurement,setting,value
C[C@]12CCC(=O)C(O)=C1CC[C@@H]1[C@@H]2CC[C@]2(C)C(=O)CC[C@@H]12 [4-hydroxyandrostenedione],absorption when administered orally,[1],poorly absorbed when administered orally
"Clc1ccc(Oc2cccc3ccccc23)c(Cn2ccnc2)c1 [Example 5, 1-[5-chloro-2-(1-naphthyloxy)benzyl]-1H-imidazole]",IC50,[2]; [10],6 nM
"Clc1ccc(Oc2ccc3ccccc3c2)c(Cn2ccnc2)c1 [Example 6, 1-[5-Chloro-2-(2-naphthyloxy)benzyl]-1H-imidazole]",IC50,[2]; [10],9.9 nM
"Cn1nnc2ccc(Oc3ccc(Cl)cc3Cn3ccnc3)cc21 [Example 38, 6-[4-chloro-2-(1H-imidazol-1-ylmethyl)phenoxy]-1-methyl-1H-benzotriazole]",inhibition in vivo at 0.1 mg/kg,[3],44%
same,IC50,[2]; [10],0.4 nM
"Clc1ccc(Oc2ccc3[nH]nnc3c2)c(Cn2cncn2)c1 [Example 40, 5-[4-chloro-2-(1H-1,2,4-triazol-1-ylmethyl)phenoxy]-1H-benzotriazole]",IC50,[2]; [10],0.6 nM
"Cn1nnc2ccc(Oc3ccc(Cl)cc3Cn3cncn3)cc21 [Example 41, 6-[4-chloro-2-(1H-1,2,4-triazol-1-ylmethyl)phenoxy]-1-methyl-1H-benzotriazole]",inhibition in vivo at 0.01 mg/kg,[3],46%
same,inhibition in vivo at 0.1 mg/kg,[3],70%
same,effect on plasma levels of corticosterone,[4],neither the compound of Example 41 nor the compound of Example 52 in accordance with the present invention had any effect
same,IC50,[2]; [10],0.5 nM
same,effect on plasma levels of testosterone,[5],neither the compound of Example 41 nor the compound of Example 52 in accordance with the present invention had any effect
same,effect on plasma levels of progesterone,[6],neither the compound of Example 41 nor the compound of Example 52 in accordance with the present invention had any effect
same,effect on any steroid hormone level in blood,[7],Neither the compound of Example 41 nor the compound of Example 52 in accordance with the present invention had any effect
"Cn1nnc2ccc(Oc3ccc(Br)cc3Cn3cncn3)cc21 [Example 43, 6-[4-bromo-2-(1H-1,2,4-triazol-1-ylmethyl)phenoxy]-1-methyl-1H-benzotriazole]",inhibition in vivo at 0.01 mg/kg,[3],41%
same,inhibition in vivo at 0.1 mg/kg,[3],69%
same,IC50,[2]; [10],0.3 nM
"Cn1nnc2ccc(Oc3ccccc3Cn3cncn3)cc21 [Example 44, 1-methyl-6-[2-(1H-1,2,4-triazol-1-ylmethyl)phenoxy]-1H-benzotriazole]",inhibition in vivo at 0.1 mg/kg,[3],23%
same,IC50,[2]; [10],7.8 nM
"Cn1nnc2ccc(Oc3ccc(F)cc3Cn3cncn3)cc21 [Example 45, 6-[4-Fluoro-2-(1H-1,2,4-triazol-1-ylmethyl)phenoxy]-1-methyl-1H-benzotriazole]",IC50,[2]; [10],3.3 nM
"Cn1nnc2ccc(Oc3ccc(I)cc3Cn3cncn3)cc21 [Example 46, 6-[4-Iodo-2-(1H-1,2,4-triazol-1-ylmethyl)phenoxy]-1-methyl-1H-benzotriazole]",inhibition in vivo at 0.01 mg/kg,[3],36%
same,IC50,[2]; [10],0.4 nM
"COc1ccc(Oc2ccc3nnn(C)c3c2)c(Cn2cncn2)c1 [Example 47, 6-[4-Methoxy-2-(1H-1,2,4-triazol-1-ylmethyl)phenoxy]-1-methyl-1H-benzotriazole]",IC50,[2]; [10],1.6 nM
"Cn1nnc2ccc(Oc3ccc(OC(F)(F)F)cc3Cn3cncn3)cc21 [Example 48, 1-Methyl-6-[4-(trifluoromethoxy)-2-(1H-1,2,4-triazol-1-ylmethyl)phenoxy]-1H-benzotriazole]",inhibition in vivo at 0.01 mg/kg,[3],30%
same,IC50,[2],0.9 nM
"Cn1nnc2ccc(Oc3cc(Cl)ccc3Cn3cncn3)cc21 [Example 49, 6-[5-Chloro-2-(1H-1,2,4-triazol-1-ylmethyl)phenoxy]-1-methyl-1H-benzotriazole]",IC50,[2]; [10],1.5 nM
"Cn1nnc2ccc(Oc3ccc([N+](=O)[O-])cc3Cn3cncn3)cc21 [Example 50, 1-methyl-6-[4-nitro-2-(1H-1,2,4-triazol-1-ylmethyl)phenoxy]-1H-benzotriazole]",inhibition in vivo at 0.01 mg/kg,[3],59%
same,IC50,[2]; [10],0.5 nM
"CC(=O)c1ccc(Oc2ccc3nnn(C)c3c2)c(Cn2cncn2)c1 [Example 51, 4-[6-(1-methyl-1H-benzotriazoyloxy)]-3-(1H-1,2,4-triazol-1-ylmethyl)acetophenone]",IC50,[2]; [10],1.2 nM
"Cn1nnc2ccc(Oc3ccc(C#N)cc3Cn3cncn3)cc21 [Example 52, 4-[6-(1-methyl-1H-benzotriazoyloxy)]-3-(1H-1,2,4-triazol-1-ylmethyl)benzonitrile]",inhibition in vivo at 0.001 mg/kg,[3]; 0.001 mg/kg orally,22%
same,inhibition in vivo at 0.01 mg/kg,[3],77%
same,inhibition in vivo at 0.1 mg/kg,[3],91%
same,effect on plasma levels of corticosterone,[4],neither the compound of Example 41 nor the compound of Example 52 in accordance with the present invention had any effect
same,IC50,[2]; [10],0.4 nM
same,effect on plasma levels of testosterone,[5],neither the compound of Example 41 nor the compound of Example 52 in accordance with the present invention had any effect
same,effect on plasma levels of progesterone,[6],neither the compound of Example 41 nor the compound of Example 52 in accordance with the present invention had any effect
same,effect on any steroid hormone level in blood,[7],Neither the compound of Example 41 nor the compound of Example 52 in accordance with the present invention had any effect
"Cn1nnc2ccc(Oc3ccc(C=O)cc3Cn3cncn3)cc21 [Example 53, 4-[6-(1-methyl-1H-benzotriazoyloxy)]-3-(1H-1,2,4-triazol-1-ylmethyl)benzaldehyde]",IC50,[2]; [10],0.8 nM
"CCOC(=O)c1ccc(Oc2ccc3nnn(C)c3c2)c(Cn2cncn2)c1 [Example 55, 4-[6-(1-methyl-1H-benzotriazoyloxy) ]-3-(1H-1,2,4-triazol-1-ylmethyl)benzoic acid ethyl ester]",IC50,[2]; [10],1.4 nM
C=Cc1ccc(Oc2ccc3nnn(C)c3c2)c(Cn2cncn2)c1 [Example 56],IC50,[2]; [10],0.3 nM
"C#Cc1ccc(Oc2ccc3nnn(C)c3c2)c(Cn2cncn2)c1 [Example 58, 6-[4-ethynyl-2-(1H-1,2,4-triazol-1-ylmethyl)phenoxy]-1-methyl-1H-benzotriazole]",IC50,[2]; [10],0.3 nM
"Cn1nnc2ccc(Oc3ccc(C(F)(F)F)cc3Cn3cncn3)cc21 [Example 64, 6-[2-(1H-1,2,4-triazol-1-ylmethyl)-4-(trifluoromethyl)phenoxy]-1-methyl-1H-benzotriazole]",IC50,[2]; [10],0.6 nM
"CCn1nnc2ccc(Oc3ccc(Cl)cc3Cn3cncn3)cc21 [Example 67, 6-[4-chloro-2-(1H-1,2,4-triazol-1-ylmethyl)phenoxy]-1-ethyl-1H-benzotriazole]",IC50,[2]; [10],0.6 nM
"Cn1cnc2ccc(Oc3ccc(Cl)cc3Cn3cncn3)cc21 [Example 68, 6-[4-chloro-2-(1H-1,2,4-triazol-1-ylmethyl)phenoxy]-1-methylbenzimidazole]",IC50,[2]; [10],2.6 nM
"Cn1nnc2ccc(Sc3ccc(Cl)cc3Cn3cncn3)cc21 [Example 71, 6-[4-chloro-2-(1H-1,2,4-triazol-1-ylmethyl)phenylthio]-1-methyl-1H-benzotriazole]",IC50,[2]; [10],1.2 nM
"Cn1nnc2ccc(Cc3ccc(Cl)cc3Cn3cncn3)cc21 [Example 79, 6-[4-chloro-2-(1H-1,2,4-triazol-1-ylmethyl)benzyl]-1-methyl-1H-benzotriazole]",IC50,[2]; [10],0.7 nM
"Cn1nnc2ccc(Cc3ccc(C#N)cc3Cn3cncn3)cc21 [Example 80, 4-[(1-methyl-1H-benzotriazole-6-yl)methyl]-3-(1H-1,2,4-triazol-1-ylmethyl)benzonitrile]",inhibition in vivo at 0.1 mg/kg,[3],49%
same,IC50,[2]; [10],1.9 nM
Clc1ccccc1C(c1ccccc1)(c1ccccc1)n1ccnc1 [clotrimazole],aromatase inhibitory action,[8],have aromatase inhibitory activities as well
CC(=O)N1CCN(c2ccc(OCC3COC(Cn4ccnc4)(c4ccc(Cl)cc4Cl)O3)cc2)CC1 (centres unmarked) [ketoconazole],aromatase inhibitory action,[8],have aromatase inhibitory activities as well
Clc1ccc(COC(Cn2ccnc2)c2ccc(Cl)cc2Cl)c(Cl)c1 (centres unmarked) [miconazole],aromatase inhibitory action,[8],have aromatase inhibitory activities as well
CC/C(=C(\c1ccccc1)c1ccc(OCCN(C)C)cc1)c1ccccc1 [tamoxifen],therapeutical efficacy,[9],clinically satisfactory effect cannot be brought about from such administration alone
C[C@]12C=CC(=O)C=C1CC[C@@H]1[C@@H]2CC[C@]2(C)OC(=O)CC[C@@H]12 [testolactone],therapeutical efficacy,[9],never exerts sufficient therapeutical efficacy
same,absorption when administered orally,[1],poorly absorbed when administered orally
